In brackets after ≈: the same amount, converted by molar mass.
Experiments:
Staphylococcus aureus [1] = assay: Antibacterial activity against Staphylococcus aureus MTCC 96 assessed as concentration required to completely destroy test microorganisms after 24 hrs; format: functional; details: MTCC 96, 24 h
Klebsiella pneumoniae [2] = assay: Antibacterial activity against Klebsiella pneumoniae MTCC 3384 after 24 hrs by microdilution method; format: functional; details: MTCC 3384, 24 h
Aspergillus niger [3] = assay: Antifungal activity against Aspergillus niger MTCC 281 assessed as concentration required to completely destroy test microorganisms after 24 hrs; format: functional
Escherichia coli [4] = assay: Antibacterial activity against Escherichia coli MTCC 724 at 100 ug/ml after 24 hrs by disc diffusion method; format: functional; details: MTCC 724, 24 h, read-out: IZ
Bacillus cereus [5] = assay: Antibacterial activity against Bacillus cereus MTCC 8372 after 24 hrs by microdilution method; format: functional; details: MTCC 8372, 24 h
Aspergillus flavus [6] = assay: Antifungal activity against Aspergillus flavus MTCC 873 after 48 hrs by microdilution method; format: functional
Aspergillus niger [7] = assay: Antifungal activity against Aspergillus niger MTCC 281 after 48 hrs by microdilution method; format: functional
Staphylococcus aureus [8] = assay: Antibacterial activity against Staphylococcus aureus MTCC 96 at 50 ug/ml after 24 hrs by disc diffusion method; format: functional; details: MTCC 96, 24 h, read-out: IZ
Klebsiella pneumoniae [9] = assay: Antibacterial activity against Klebsiella pneumoniae MTCC 3384 at 100 ug/ml after 24 hrs by disc diffusion method; format: functional; details: MTCC 3384, 24 h, read-out: IZ
Klebsiella pneumoniae [10] = assay: Antibacterial activity against Klebsiella pneumoniae MTCC 3384 assessed as concentration required to completely destroy test microorganisms after 24 hrs; format: functional; details: MTCC 3384, 24 h
Bacillus cereus [11] = assay: Antibacterial activity against Bacillus cereus MTCC 8372 assessed as concentration required to completely destroy test microorganisms after 24 hrs; format: functional; details: MTCC 8372, 24 h
Bacillus cereus [12] = assay: Antibacterial activity against Bacillus cereus MTCC 8372 at 50 ug/ml after 24 hrs by disc diffusion method; format: functional; details: MTCC 8372, 24 h, read-out: IZ
Escherichia coli [13] = assay: Antibacterial activity against Escherichia coli MTCC 724 at 50 ug/ml after 24 hrs by disc diffusion method; format: functional; details: MTCC 724, 24 h, read-out: IZ
Escherichia coli [14] = assay: Antibacterial activity against Escherichia coli MTCC 724 assessed as concentration required to completely destroy test microorganisms after 24 hrs; format: functional; details: MTCC 724, 24 h
[15] = Inhibition of alpha-glucosidase (unknown origin) using p-nitrophenol glycoside as substrate after 30 mins by colorimetric analysis; design: species or system Homo sapiens
Staphylococcus aureus [16] = assay: Antibacterial activity against Staphylococcus aureus MTCC 96 at 100 ug/ml after 24 hrs by disc diffusion method; format: functional; details: MTCC 96, 24 h, read-out: IZ
Aspergillus niger [17] = assay: Antifungal activity against Aspergillus niger MTCC 281 at 100 ug/ml after 24 hrs by disc diffusion method; format: functional; details: MTCC 281, 24 h, read-out: IZ
Bacillus cereus [18] = assay: Antibacterial activity against Bacillus cereus MTCC 8372 at 100 ug/ml after 24 hrs by disc diffusion method; format: functional; details: MTCC 8372, 24 h, read-out: IZ
Aspergillus flavus [19] = assay: Antifungal activity against Aspergillus flavus MTCC 873 at 50 ug/ml after 24 hrs by disc diffusion method; format: functional; details: for zone of inhibition at 50 µg/mL: MTCC 873, 24 h, read-out: IZ
Klebsiella pneumoniae [20] = assay: Antibacterial activity against Klebsiella pneumoniae MTCC 3384 at 50 ug/ml after 24 hrs by disc diffusion method; format: functional; details: MTCC 3384, 24 h, read-out: IZ
Escherichia coli [21] = assay: Antibacterial activity against Escherichia coli MTCC 724 after 24 hrs by microdilution method; format: functional; details: MTCC 724, 24 h
Aspergillus flavus [22] = assay: Antifungal activity against Aspergillus flavus MTCC 873 assessed as concentration required to completely destroy test microorganisms after 24 hrs; format: functional
Alpha amylase = biological target: T1, Alpha amylase (Homo sapiens, UniProt P0DUB6); assay: Inhibition of alpha-amylase (unknown origin) using starch as substrate after 30 mins by spectrophotometer analysis
T1 sequence (P0DUB6 whole entry): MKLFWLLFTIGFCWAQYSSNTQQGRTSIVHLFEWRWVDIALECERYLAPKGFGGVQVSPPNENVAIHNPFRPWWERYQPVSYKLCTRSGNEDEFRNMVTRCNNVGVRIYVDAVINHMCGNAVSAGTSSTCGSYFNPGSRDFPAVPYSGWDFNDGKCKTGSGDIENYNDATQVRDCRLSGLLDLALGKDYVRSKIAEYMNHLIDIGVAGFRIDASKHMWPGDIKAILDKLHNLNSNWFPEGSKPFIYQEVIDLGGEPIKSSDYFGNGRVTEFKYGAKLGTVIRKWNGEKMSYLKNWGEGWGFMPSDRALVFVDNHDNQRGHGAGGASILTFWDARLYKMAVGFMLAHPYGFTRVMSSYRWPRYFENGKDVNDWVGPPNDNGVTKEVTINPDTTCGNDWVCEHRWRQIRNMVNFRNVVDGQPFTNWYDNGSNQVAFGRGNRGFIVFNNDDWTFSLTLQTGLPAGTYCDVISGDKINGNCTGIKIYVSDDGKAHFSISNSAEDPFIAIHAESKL

Aspergillus flavus [23] = assay: Antifungal activity against Aspergillus flavus MTCC 873 at 100 ug/ml after 24 hrs by disc diffusion method; format: functional; details: for zone of inhibition at 100 µg/mL: MTCC 873, 24 h, read-out: IZ
Staphylococcus aureus [24] = assay: Antibacterial activity against Staphylococcus aureus MTCC 96 after 24 hrs by microdilution method; format: functional; details: MTCC 96, 24 h
Aspergillus niger [25] = assay: Antifungal activity against Aspergillus niger MTCC 281 at 50 ug/ml after 24 hrs by disc diffusion method; format: functional; details: MTCC 281, 24 h, read-out: IZ

Row | Compound | MBC (Staphylococcus aureus [1]) [µg/mL] | MIC (Klebsiella pneumoniae [2]) [µg/mL] | MFC (Aspergillus niger [3]; MTCC 281, 24 h) [µg/mL] | zone of inhibition at 100 µg/mL (Escherichia coli [4]) [mm] | MIC (Bacillus cereus [5]) [µg/mL] | MIC (Aspergillus flavus [6]; MTCC 873, 48 h) [µg/mL] | MIC (Aspergillus niger [7]; MTCC 281, 48 h) [µg/mL] | zone of inhibition at 50 µg/mL (Staphylococcus aureus [8]) [mm] | zone of inhibition at 100 µg/mL (Klebsiella pneumoniae [9]) [mm] | MBC (Klebsiella pneumoniae [10]) [µg/mL] | MBC (Bacillus cereus [11]) [µg/mL] | zone of inhibition at 50 µg/mL (Bacillus cereus [12]) [mm] | zone of inhibition at 50 µg/mL (Escherichia coli [13]) [mm] | MBC (Escherichia coli [14]) [µg/mL] | IC50 [15] [µg/mL] | zone of inhibition at 100 µg/mL (Staphylococcus aureus [16]) [mm] | zone of inhibition at 100 µg/mL (Bacillus cereus [18]) [mm] | zone of inhibition at 50 µg/mL (Klebsiella pneumoniae [20]) [mm] | MIC (Escherichia coli [21]) [µg/mL] | MIC (Staphylococcus aureus [24]) [µg/mL] | also measured
1 | CCOC(=O)c1c(-c2ccccc2)nn(-c2ccccc2)c1Cn1c(Cl)nc2ccccc21 | 160 (≈ 350 µM) | 30 (≈ 65.7 µM) | 215 (≈ 471 µM) | 19 | 35 (≈ 76.6 µM) | 30 (≈ 65.7 µM) | 25 (≈ 54.7 µM) | 9 | 12 | 190 (≈ 416 µM) | 220 (≈ 481 µM) | 6 | 9 | 190 (≈ 416 µM) | 20 (≈ 43.8 µM) | 11 | 14 | 6 | 35 (≈ 76.6 µM) | 30 (≈ 65.7 µM) | zone of inhibition at 100 µg/mL (Aspergillus niger [17]): 10 mm; zone of inhibition at 50 µg/mL (Aspergillus flavus [19]): 8 mm; MFC (Aspergillus flavus [22]; MTCC 873, 24 h): 230 µg/mL (≈ 503 µM); IC50 (Alpha amylase): 10 µg/mL (≈ 21.9 µM); zone of inhibition at 100 µg/mL (Aspergillus flavus [23]): 9 mm; zone of inhibition at 50 µg/mL (Aspergillus niger [25]): 10 mm
2 | CCOC(=O)c1c(-c2ccccc2)nn(-c2ccccc2)c1COc1ccc(C=O)cc1OC | 240 (≈ 526 µM) | 45 (≈ 98.6 µM) | 205 (≈ 449 µM) | 8 | 45 (≈ 98.6 µM) | 40 (≈ 87.6 µM) | 40 (≈ 87.6 µM) | 2 | 6 | 200 (≈ 438 µM) | 230 (≈ 504 µM) | 4 | 3 | 210 (≈ 460 µM) | 70 (≈ 153 µM) | 8 | 8 | 4 | 40 (≈ 87.6 µM) | 45 (≈ 98.6 µM) | zone of inhibition at 100 µg/mL (Aspergillus niger [17]): 10 mm; zone of inhibition at 50 µg/mL (Aspergillus flavus [19]): 8 mm; MFC (Aspergillus flavus [22]; MTCC 873, 24 h): 250 µg/mL (≈ 548 µM); IC50 (Alpha amylase): 60 µg/mL (≈ 131 µM); zone of inhibition at 100 µg/mL (Aspergillus flavus [23]): 9 mm; zone of inhibition at 50 µg/mL (Aspergillus niger [25]): 12 mm
3 | CCOC(=O)c1c(-c2ccccc2)nn(-c2ccccc2)c1COCc1c(-c2ccc(F)cc2)nc(N(C)S(C)(=O)=O)nc1C(C)C | 190 (≈ 289 µM) | 30 (≈ 45.6 µM) | 280 (≈ 426 µM) | 10 | 15 (≈ 22.8 µM) | 55 (≈ 83.6 µM) | 50 (≈ 76 µM) | 6 | 10 | 240 (≈ 365 µM) | 150 (≈ 228 µM) | 8 | 3 | 280 (≈ 426 µM) | 25 (≈ 38 µM) | 19 | 20 | 8 | 35 (≈ 53.2 µM) | 40 (≈ 60.8 µM) | zone of inhibition at 100 µg/mL (Aspergillus niger [17]): 8 mm; zone of inhibition at 50 µg/mL (Aspergillus flavus [19]): 12 mm; MFC (Aspergillus flavus [22]; MTCC 873, 24 h): 300 µg/mL (≈ 456 µM); IC50 (Alpha amylase): 15 µg/mL (≈ 22.8 µM); zone of inhibition at 100 µg/mL (Aspergillus flavus [23]): 6 mm; zone of inhibition at 50 µg/mL (Aspergillus niger [25]): 10 mm
4 | NYSTATIN |  |  |  |  |  |  |  |  |  |  |  |  |  |  |  |  |  |  |  |  | MFC (Aspergillus niger [3]): 100 µg/mL; MIC (Aspergillus flavus [6]): 8 µg/mL; MIC (Aspergillus niger [7]): 10 µg/mL; inhibition zone (IZ) (Aspergillus flavus [19]): 16 mm; MFC (Aspergillus flavus [22]): 100 µg/mL; inhibition zone (IZ) (Aspergillus flavus [23]): 20 mm
5 | CN(C)[C@@H]1C(O)=C(C(N)=O)C(=O)[C@@]2(O)C(O)=C3C(=O)c4c(O)cccc4[C@@](C)(O)[C@H]3C[C@@H]12 [TETRACYCLINE] | 120 (≈ 270 µM) | 8 (≈ 18 µM) |  | 30 | 4 (≈ 9 µM) |  |  | 10 | 20 | 120 (≈ 270 µM) | 120 (≈ 270 µM) | 10 | 18 | 120 (≈ 270 µM) |  | 20 | 22 | 12 | 12 (≈ 27 µM) | 10 (≈ 22.5 µM) | 

From ChEMBL document CHEMBL3603774, “Novel 5-functionalized-pyrazoles: Synthesis, characterization and pharmacological screening” (Bioorg Med Chem Lett, 2015)
